Assays:
[1] = tested on: HIV-I infected H9 cells (antiviral activity); assay: Antiviral activity against HIV-I infected H9 cells
[2] = biological target: Human immunodeficiency virus type 1 protease (Human immunodeficiency virus 1, UniProt Q72874); assay: Inhibitory activity against HIV-I protease.

| IC50 [1] | Ki [2] | SMILES |
| --- | --- | --- |
| 23.5 µM | – | O=C(Nc1cccc(C(c2c(O)c3c(oc2=O)CCCCCC3)C2CC2)c1)c1ccccc1 (configuration not stated) [N-{3-[Cyclopropyl-(4-hydroxy-2-oxo-5,6,7,8,9,10-hexahydro-2H-cycloocta[b]pyran-3-yl)-methyl]-phenyl}-benzamide] |
| 29.8 µM | – | CC(C)(C)OC(=O)NCC(=O)Nc1cccc(C(c2c(O)c3c(oc2=O)CCCCCC3)C2CC2)c1 (configuration not stated) [({3-[Cyclopropyl-(4-hydroxy-2-oxo-5,6,7,8,9,10-hexahydro-2H-cycloocta[b]pyran-3-yl)-methyl]-phenylcarbamoyl}-methyl)-carbamic acid tert-butyl ester] |
| > 60 µM | – | CCNC(=O)Nc1cccc(C(c2c(O)c3c(oc2=O)CCCCCC3)C2CC2)c1 (configuration not stated) [1-{3-[Cyclopropyl-(4-hydroxy-2-oxo-5,6,7,8,9,10-hexahydro-2H-cycloocta[b]pyran-3-yl)-methyl]-phenyl}-3-ethyl-urea] |
| 45.3 µM | – | CC(C)(C)OC(=O)N[C@@H](Cc1cnc[nH]1)C(=O)Nc1cccc(C(c2c(O)c3c(oc2=O)CCCCCC3)C2CC2)c1 (stereo partly drawn) [[(S)-1-{3-[Cyclopropyl-(4-hydroxy-2-oxo-5,6,7,8,9,10-hexahydro-2H-cycloocta[b]pyran-3-yl)-methyl]-phenylcarbamoyl}-2-(1H-imidazol-4-yl)-ethyl]-carbamic acid tert-butyl ester] |
| – | 0.024 µM | O=c1oc2c(c(O)c1C(c1ccccc1)C1CC1)CCCCCC2CC1CC1 (configuration not stated) [10-Cyclopropylmethyl-3-(cyclopropyl-phenyl-methyl)-4-hydroxy-5,6,7,8,9,10-hexahydro-cycloocta[b]pyran-2-one] |
| 17.3 µM | – | O=C(Cc1ccccc1)Nc1cccc(C(c2c(O)c3c(oc2=O)CCCCCC3)C2CC2)c1 (configuration not stated) [N-{3-[Cyclopropyl-(4-hydroxy-2-oxo-5,6,7,8,9,10-hexahydro-2H-cycloocta[b]pyran-3-yl)-methyl]-phenyl}-2-phenyl-acetamide] |
| 49.5 µM | – | CC(C)(C)OC(=O)NCCCC(=O)Nc1cccc(C(c2c(O)c3c(oc2=O)CCCCCC3)C2CC2)c1 (configuration not stated) [(3-{3-[Cyclopropyl-(4-hydroxy-2-oxo-5,6,7,8,9,10-hexahydro-2H-cycloocta[b]pyran-3-yl)-methyl]-phenylcarbamoyl}-propyl)-carbamic acid tert-butyl ester] |
| 21.9 µM | – | O=C(Nc1cccc(C(c2c(O)c3c(oc2=O)CCCCCC3)C2CC2)c1)c1ccc(F)cc1 (configuration not stated) [N-{3-[Cyclopropyl-(4-hydroxy-2-oxo-5,6,7,8,9,10-hexahydro-2H-cycloocta[b]pyran-3-yl)-methyl]-phenyl}-4-fluoro-benzamide] |
| 33.4 µM | – | CC(C)(C)OC(=O)NCCC(=O)Nc1cccc(C(c2c(O)c3c(oc2=O)CCCCCC3)C2CC2)c1 (configuration not stated) [(2-{3-[Cyclopropyl-(4-hydroxy-2-oxo-5,6,7,8,9,10-hexahydro-2H-cycloocta[b]pyran-3-yl)-methyl]-phenylcarbamoyl}-ethyl)-carbamic acid tert-butyl ester] |
| 29.2 µM | – | CC(C)(C)OC(=O)N1CCC[C@H]1C(=O)Nc1cccc(C(c2c(O)c3c(oc2=O)CCCCCC3)C2CC2)c1 (stereo partly drawn) [(S)-2-{3-[Cyclopropyl-(4-hydroxy-2-oxo-5,6,7,8,9,10-hexahydro-2H-cycloocta[b]pyran-3-yl)-methyl]-phenylcarbamoyl}-pyrrolidine-1-carboxylic acid tert-butyl ester] |
| 31.8 µM | – | C[C@H](NC(=O)OC(C)(C)C)C(=O)Nc1cccc(C(c2c(O)c3c(oc2=O)CCCCCC3)C2CC2)c1 (stereo partly drawn) [((S)-1-{3-[Cyclopropyl-(4-hydroxy-2-oxo-5,6,7,8,9,10-hexahydro-2H-cycloocta[b]pyran-3-yl)-methyl]-phenylcarbamoyl}-ethyl)-carbamic acid tert-butyl ester] |
| 17.1 µM | – | O=C(C=Cc1ccccc1)Nc1cccc(C(c2c(O)c3c(oc2=O)CCCCCC3)C2CC2)c1 (configuration not stated) [(E)-N-{3-[Cyclopropyl-(4-hydroxy-2-oxo-5,6,7,8,9,10-hexahydro-2H-cycloocta[b]pyran-3-yl)-methyl]-phenyl}-3-phenyl-acrylamide] |
| 5.3 µM | – | CCCC1CCCCCCc2c1oc(=O)c(C(c1ccccc1)C1CC1)c2O (configuration not stated) [3-(Cyclopropyl-phenyl-methyl)-4-hydroxy-11-propyl-6,7,8,9,10,11-hexahydro-5H-cyclonona[b]pyran-2-one] |
| – | 0.024 µM | O=c1oc2c(c(O)c1C(c1ccccc1)C1CC1)CCCCCCC2CC1CC1 (configuration not stated) [11-Cyclopropylmethyl-3-(cyclopropyl-phenyl-methyl)-4-hydroxy-6,7,8,9,10,11-hexahydro-5H-cyclonona[b]pyran-2-one] |
| 35.1 µM | – | CCCC(=O)Nc1cccc(C(c2c(O)c3c(oc2=O)CCCCCC3)C2CC2)c1 (configuration not stated) [N-{3-[Cyclopropyl-(4-hydroxy-2-oxo-5,6,7,8,9,10-hexahydro-2H-cycloocta[b]pyran-3-yl)-methyl]-phenyl}-butyramide] |
| > 60 µM | – | C[C@@H](NC(=O)OC(C)(C)C)C(=O)Nc1cccc(C(c2c(O)c3c(oc2=O)CCCCCC3)C2CC2)c1 (stereo partly drawn) [((R)-1-{3-[Cyclopropyl-(4-hydroxy-2-oxo-5,6,7,8,9,10-hexahydro-2H-cycloocta[b]pyran-3-yl)-methyl]-phenylcarbamoyl}-ethyl)-carbamic acid tert-butyl ester] |
| 21.7 µM | – | O=C(Nc1ccccc1)Nc1cccc(C(c2c(O)c3c(oc2=O)CCCCCC3)C2CC2)c1 (configuration not stated) [1-{3-[Cyclopropyl-(4-hydroxy-2-oxo-5,6,7,8,9,10-hexahydro-2H-cycloocta[b]pyran-3-yl)-methyl]-phenyl}-3-phenyl-urea] |

From BindingDB's records for doi:10.1021/jm00022a011 (Upjohn Laboratories, 1995)
